Test results taken from ChEMBL document CHEMBL3397011, “A novel molecule with notable activity against multi-drug resistant tuberculosis” (Bioorg Med Chem Lett, 2015).

How the values were obtained:
[1] = molecular target: T1, Cytochrome P450 3A4 (Homo sapiens, UniProt P08684); assay: Inhibition of CYP3A4 in pooled mixed-gender human liver microsomes at <25 uM using testosterone substrate in presence of NADPH pre-incubated for 3 mins by HPLC-UV detection method; format: ADME
[2] = molecular target: T2, UDP-glucuronosyltransferase 1A1 (Homo sapiens, UniProt P22309); assay: Inhibition of UGT1A1 in pooled mixed-gender human liver microsomes using 4-methylumbelliferone substrate by HPLC method; format: ADME
T2 sequence (P22309 whole entry): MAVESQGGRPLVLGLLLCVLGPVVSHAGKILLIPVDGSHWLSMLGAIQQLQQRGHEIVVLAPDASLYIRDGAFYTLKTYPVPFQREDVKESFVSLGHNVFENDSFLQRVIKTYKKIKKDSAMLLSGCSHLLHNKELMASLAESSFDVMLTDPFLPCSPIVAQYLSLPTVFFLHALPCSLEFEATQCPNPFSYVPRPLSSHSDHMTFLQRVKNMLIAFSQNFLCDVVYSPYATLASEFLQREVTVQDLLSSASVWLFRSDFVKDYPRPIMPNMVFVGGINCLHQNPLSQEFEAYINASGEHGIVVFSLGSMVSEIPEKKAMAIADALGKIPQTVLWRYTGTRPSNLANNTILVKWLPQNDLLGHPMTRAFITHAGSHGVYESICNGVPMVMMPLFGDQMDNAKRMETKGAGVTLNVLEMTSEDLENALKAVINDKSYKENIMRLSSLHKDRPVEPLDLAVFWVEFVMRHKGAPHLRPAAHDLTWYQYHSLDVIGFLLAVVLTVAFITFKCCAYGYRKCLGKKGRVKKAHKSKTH

[3] = molecular target: T3, UDP-glucuronosyltransferase 2B7 (Homo sapiens, UniProt P16662); assay: Inhibition of […] in pooled mixed-gender human liver microsomes using 4-methylumbelliferone substrate by HPLC method; format: ADME
T3 sequence (P16662 whole entry): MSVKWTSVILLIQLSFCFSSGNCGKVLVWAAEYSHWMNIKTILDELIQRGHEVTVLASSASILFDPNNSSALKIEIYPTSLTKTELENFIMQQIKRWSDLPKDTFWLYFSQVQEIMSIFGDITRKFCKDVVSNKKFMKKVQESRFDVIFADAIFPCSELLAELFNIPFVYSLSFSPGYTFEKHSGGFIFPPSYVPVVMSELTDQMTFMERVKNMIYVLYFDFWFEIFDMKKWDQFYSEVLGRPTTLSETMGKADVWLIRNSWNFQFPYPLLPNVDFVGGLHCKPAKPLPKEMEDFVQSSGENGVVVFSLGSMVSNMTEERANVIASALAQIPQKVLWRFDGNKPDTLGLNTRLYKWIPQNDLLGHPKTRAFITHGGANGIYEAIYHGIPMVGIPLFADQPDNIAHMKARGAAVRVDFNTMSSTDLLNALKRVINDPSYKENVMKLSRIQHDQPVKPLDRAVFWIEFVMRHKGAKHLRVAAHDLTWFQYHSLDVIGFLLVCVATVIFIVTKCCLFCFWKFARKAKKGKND

[4] = molecular target: T4, UDP-glucuronosyltransferase 1A6 (Homo sapiens, UniProt P19224); assay: Drug metabolism assessed as UGT1A6-mediated compound glucuronidation in pooled mixed-gender human liver microsomes at 50 uM preincubated at 37 degC for 3 mins before UDPGA addition by HPLC method; format: ADME
T4 sequence (P19224 whole entry): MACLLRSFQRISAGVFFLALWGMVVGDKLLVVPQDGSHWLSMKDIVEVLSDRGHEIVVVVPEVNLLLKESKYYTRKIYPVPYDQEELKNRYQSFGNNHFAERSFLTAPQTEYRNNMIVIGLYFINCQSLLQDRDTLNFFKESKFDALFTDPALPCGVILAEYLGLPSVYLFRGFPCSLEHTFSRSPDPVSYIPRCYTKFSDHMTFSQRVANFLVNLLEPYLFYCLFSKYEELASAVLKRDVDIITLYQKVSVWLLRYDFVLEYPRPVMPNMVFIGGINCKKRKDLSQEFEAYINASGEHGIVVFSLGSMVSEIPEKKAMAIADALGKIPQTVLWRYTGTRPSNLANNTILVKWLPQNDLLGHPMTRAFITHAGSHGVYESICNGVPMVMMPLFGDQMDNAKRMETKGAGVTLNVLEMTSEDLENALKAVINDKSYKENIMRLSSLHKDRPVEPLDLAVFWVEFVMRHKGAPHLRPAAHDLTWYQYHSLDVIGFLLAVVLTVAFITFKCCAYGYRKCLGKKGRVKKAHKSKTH

[5] = molecular target: T4, UDP-glucuronosyltransferase 1A6; assay: Inhibition of UGT1A6 in pooled mixed-gender human liver microsomes using 4-methylumbelliferone substrate by HPLC method; format: ADME
[6] = molecular target: T3, UDP-glucuronosyltransferase 2B7; assay: Activation of UGT2B7 in pooled mixed-gender human liver microsomes at 50 uM preincubated at 37 degC for 3 mins before UDPGA addition by HPLC method; format: ADME
[7] = molecular target: T5, UDP-glucuronosyltransferase 1A4 (Homo sapiens, UniProt P22310); assay: Inhibition of UGT1A4 in pooled mixed-gender human liver microsomes using 4-methylumbelliferone substrate by HPLC method; format: ADME
T5 sequence (P22310 whole entry): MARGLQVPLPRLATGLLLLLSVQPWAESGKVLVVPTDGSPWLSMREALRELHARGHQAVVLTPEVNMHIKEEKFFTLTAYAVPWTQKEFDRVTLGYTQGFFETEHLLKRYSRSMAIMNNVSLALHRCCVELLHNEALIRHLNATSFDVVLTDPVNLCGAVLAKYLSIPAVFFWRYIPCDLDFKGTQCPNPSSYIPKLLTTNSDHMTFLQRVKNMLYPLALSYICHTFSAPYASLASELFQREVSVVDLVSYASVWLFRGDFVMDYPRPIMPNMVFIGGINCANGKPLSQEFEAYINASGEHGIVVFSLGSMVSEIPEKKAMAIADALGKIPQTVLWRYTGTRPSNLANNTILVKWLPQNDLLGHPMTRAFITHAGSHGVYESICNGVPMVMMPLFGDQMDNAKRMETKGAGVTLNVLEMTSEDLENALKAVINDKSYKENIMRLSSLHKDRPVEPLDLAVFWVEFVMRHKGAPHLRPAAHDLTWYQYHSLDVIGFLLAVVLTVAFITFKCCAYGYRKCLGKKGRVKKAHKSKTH

[8] = system: Human immunodeficiency virus 1; assay: Antiviral activity against HIV1 infected in human MAGI-R5 cells; format: functional, organism-based; conditions: Human immunodeficiency virus 1, MAGI-R5
[9] = molecular target: T4, UDP-glucuronosyltransferase 1A6; assay: Activation of UGT1A6 in pooled mixed-gender human liver microsomes at 50 uM preincubated at 37 degC for 3 mins before UDPGA addition by HPLC method; format: ADME
[10] = molecular target: T1, Cytochrome P450 3A4; assay: Activation of CYP3A4 in pooled mixed-gender human liver microsomes using triazolam substrate in presence of NADPH pre-incubated for 3 mins by HPLC-UV detection method; format: ADME
[11] = molecular target: T6, UDP-glucuronosyltransferase 1A9 (Homo sapiens, UniProt O60656); assay: Inhibition of UGT1A9 in pooled mixed-gender human liver microsomes using 4-methylumbelliferone substrate by HPLC method; format: ADME
T6 sequence (O60656 whole entry): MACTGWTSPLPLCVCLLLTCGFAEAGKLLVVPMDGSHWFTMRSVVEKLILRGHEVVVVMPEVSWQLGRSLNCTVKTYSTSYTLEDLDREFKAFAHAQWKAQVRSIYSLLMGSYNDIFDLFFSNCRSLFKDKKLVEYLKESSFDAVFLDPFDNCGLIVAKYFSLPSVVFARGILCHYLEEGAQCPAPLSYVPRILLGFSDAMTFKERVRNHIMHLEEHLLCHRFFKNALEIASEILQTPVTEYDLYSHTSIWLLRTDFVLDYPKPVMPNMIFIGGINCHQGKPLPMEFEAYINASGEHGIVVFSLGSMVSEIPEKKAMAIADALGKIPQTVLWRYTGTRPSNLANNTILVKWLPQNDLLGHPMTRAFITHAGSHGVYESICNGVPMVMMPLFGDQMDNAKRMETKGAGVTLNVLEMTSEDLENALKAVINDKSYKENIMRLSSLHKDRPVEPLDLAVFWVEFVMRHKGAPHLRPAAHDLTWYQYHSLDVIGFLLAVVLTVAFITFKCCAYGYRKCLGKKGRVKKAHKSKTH

[12] = system: Liver microsome; assay: Half life in pooled mixed-gender human liver microsomes at 50 uM in presence of NADPH pre-incubated for 3 mins before NADPH addition followed by incubation for 60 mins by reversed-phase HPLC method; format: ADME; conditions: 1 h
[13] = Toxicity against macrophages (unknown origin) assessed cell viability at 4 times MIC level after 7 days by MTT assay; format: cell-based, Macrophage; conditions: read-out: Activity
[14] = molecular target: T6, UDP-glucuronosyltransferase 1A9; assay: Drug metabolism assessed as UGT1A9-mediated compound glucuronidation in pooled mixed-gender human liver microsomes at 50 uM preincubated at 37 degC for 3 mins before UDPGA addition by HPLC method; format: ADME
[15] = molecular target: T7, Cytochrome P450 2D6 (Homo sapiens, UniProt P10635); assay: Activation of […] in pooled mixed-gender human liver microsomes using dextromethorphan substrate in presence of NADPH pre-incubated for 3 mins by HPLC-UV detection method; format: ADME
[16] = molecular target: T5, UDP-glucuronosyltransferase 1A4; assay: Activation of UGT1A4 in pooled mixed-gender human liver microsomes at 50 uM preincubated at 37 degC for 3 mins before UDPGA addition by HPLC method; format: ADME
[17] = molecular target: T1, Cytochrome P450 3A4; assay: Inhibition of CYP3A4 in pooled mixed-gender human liver microsomes at <25 uM using triazolam substrate in presence of NADPH pre-incubated for 3 mins by HPLC-UV detection method; format: ADME
[18] = Dissociation constant, pKa of the compound; format: physicochemical
[19] = molecular target: T1, Cytochrome P450 3A4; assay: Activation of CYP3A4 in pooled mixed-gender human liver microsomes using testosterone substrate in presence of NADPH pre-incubated for 3 mins by HPLC-UV detection method; format: ADME
[20] = molecular target: T2, UDP-glucuronosyltransferase 1A1; assay: Drug metabolism assessed as UGT1A1-mediated compound glucuronidation in pooled mixed-gender human liver microsomes at 50 uM preincubated at 37 degC for 3 mins before UDPGA addition by HPLC method; format: ADME
[21] = molecular target: T1, Cytochrome P450 3A4; assay: Inhibition of CYP3A4 in pooled mixed-gender human liver microsomes using testosterone substrate in presence of NADPH pre-incubated for 3 mins by HPLC-UV detection method; format: ADME
[22] = molecular target: T5, UDP-glucuronosyltransferase 1A4; assay: Activation of UGT1A4 in pooled mixed-gender human liver microsomes at 100 uM preincubated at 37 degC for 3 mins before UDPGA addition by HPLC method; format: ADME
[23] = molecular target: T5, UDP-glucuronosyltransferase 1A4; assay: Drug metabolism assessed as UGT1A4-mediated compound glucuronidation in pooled mixed-gender human liver microsomes at 50 uM preincubated at 37 degC for 3 mins before UDPGA addition by HPLC method; format: ADME
[24] = molecular target: T3, UDP-glucuronosyltransferase 2B7; assay: Drug metabolism assessed as UGT2B7-mediated compound glucuronidation in pooled mixed-gender human liver microsomes at 50 uM preincubated at 37 degC for 3 mins before UDPGA addition by HPLC method; format: ADME
[25] = molecular target: T7, Cytochrome P450 2D6; assay: Inhibition of […] in pooled mixed-gender human liver microsomes using dextromethorphan substrate in presence of NADPH pre-incubated for 3 mins by HPLC-UV detection method; format: ADME
[26] = molecular target: T1, Cytochrome P450 3A4; assay: Inhibition of CYP3A4 in pooled mixed-gender human liver microsomes using triazolam substrate in presence of NADPH pre-incubated for 3 mins by HPLC-UV detection method; format: ADME
[27] = molecular target: T2, UDP-glucuronosyltransferase 1A1; assay: Activation of UGT1A1 in pooled mixed-gender human liver microsomes at 50 uM preincubated at 37 degC for 3 mins before UDPGA addition by HPLC method; format: ADME
[28] = molecular target: T7, Cytochrome P450 2D6; assay: Inhibition of […] in pooled mixed-gender human liver microsomes at <25 uM using dextromethorphan substrate in presence of NADPH pre-incubated for 3 mins by HPLC-UV detection method; format: ADME
[29] = molecular target: T6, UDP-glucuronosyltransferase 1A9; assay: Activation of UGT1A9 in pooled mixed-gender human liver microsomes at 50 uM preincubated at 37 degC for 3 mins before UDPGA addition by HPLC method; format: ADME

T7 sequence (P10635 whole entry): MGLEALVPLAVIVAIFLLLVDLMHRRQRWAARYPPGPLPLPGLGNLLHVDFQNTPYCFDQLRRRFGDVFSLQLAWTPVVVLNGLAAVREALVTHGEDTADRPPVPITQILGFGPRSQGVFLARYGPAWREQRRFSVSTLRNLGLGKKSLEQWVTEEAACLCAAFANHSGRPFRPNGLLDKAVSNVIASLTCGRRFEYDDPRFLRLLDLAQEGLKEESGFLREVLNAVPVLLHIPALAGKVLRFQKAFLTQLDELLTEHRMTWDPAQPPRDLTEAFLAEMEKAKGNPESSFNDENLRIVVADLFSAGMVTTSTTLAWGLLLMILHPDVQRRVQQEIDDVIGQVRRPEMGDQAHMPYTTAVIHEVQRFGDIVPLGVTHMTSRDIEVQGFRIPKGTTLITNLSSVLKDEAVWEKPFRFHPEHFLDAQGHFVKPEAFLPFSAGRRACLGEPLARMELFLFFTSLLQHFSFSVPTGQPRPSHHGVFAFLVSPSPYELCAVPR
T1 sequence (P08684 whole entry): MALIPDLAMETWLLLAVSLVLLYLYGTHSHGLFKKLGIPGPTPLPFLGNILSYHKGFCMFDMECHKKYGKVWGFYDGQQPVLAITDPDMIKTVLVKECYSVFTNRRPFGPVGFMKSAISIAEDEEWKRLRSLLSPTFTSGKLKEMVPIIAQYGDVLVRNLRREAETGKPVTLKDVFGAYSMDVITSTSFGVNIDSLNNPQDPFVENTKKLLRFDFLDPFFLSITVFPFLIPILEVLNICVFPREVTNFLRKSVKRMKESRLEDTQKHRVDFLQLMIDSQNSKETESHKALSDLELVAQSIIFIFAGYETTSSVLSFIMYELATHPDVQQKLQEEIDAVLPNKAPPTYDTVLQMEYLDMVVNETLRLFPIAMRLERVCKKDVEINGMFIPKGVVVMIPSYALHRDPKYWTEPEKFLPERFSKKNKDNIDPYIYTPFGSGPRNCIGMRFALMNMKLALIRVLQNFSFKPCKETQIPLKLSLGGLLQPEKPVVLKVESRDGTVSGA

O=C(/C=C(\O)C(=O)N1CCN(c2ccc(-n3cccc3)cc2)CC1)c1cc(Cc2cc(F)cc(F)c2)cn(Cc2ccccc2F)c1=O
inhibition (INH) [1]: Not Active
IC50 [2]: > 300 µM
IC50 [3]: > 300 µM
Drug metabolism [4]: metabolite_notdetected
IC50 [5]: > 300 µM
Activity [6]: Not Active
IC50 [7]: Not Active
IC50 [8]: 0.05 µM
Activity [9]: Not Active
Activity [10]: Not Active
IC50 [11]: > 300 µM
t1/2 [12]: 14.4 h
viability at 168 h, 4 times MIC [13]: > 85%
Drug metabolism [14]: metabolite_notdetected
Activity [15]: Not Active
Activity [16]: Not Active
inhibition (INH) [17]: Not Active
pKa [18]: 9
Activity [19]: Not Active
Drug metabolism [20]: metabolite_notdetected
IC50 [21]: > 50 µM
Activity [22]: Active
Drug metabolism [23]: metabolite_notdetected
Drug metabolism [24]: metabolite_notdetected
IC50 [25]: > 185 µM
IC50 [26]: > 85 µM
Activity [27]: Not Active
inhibition (INH) [28]: Not Active
Activity [29]: Not Active

[H]/N=C(/N)N[C@H]1[C@H](O)[C@@H](O)[C@H](O[C@@H]2O[C@@H](C)[C@](O)(C=O)[C@H]2O[C@@H]2O[C@@H](CO)[C@H](O)[C@@H](O)[C@@H]2NC)[C@@H](N/C(N)=N\[H])[C@@H]1O [STREPTOMYCIN]
viability at 168 h, 4 times MIC [13]: 90%

Cc1nnc(C(=O)NC(C)(C)c2nc(C(=O)NCc3ccc(F)cc3)c(O)c(=O)n2C)o1 [RALTEGRAVIR]
Drug metabolism [4]: metabolite_detected
Drug metabolism [14]: metabolite_detected
Drug metabolism [20]: metabolite_detected
Drug metabolism [23]: metabolite_detected
Drug metabolism [24]: metabolite_detected
